From patent US8754226B2, “Piperidinyl-substituted lactams as GPR119 modulators” (Array BioPharma Inc., priority 2010, dated 2014) come the findings set out here.

The subject of the assay is modified version of the GPR119 receptor (94% identity to human receptor). The assay is described as follows: cAMP production assay (LANCE cAMP kit, TR-FRET) in HEK-293 cells. The assay is classed as cell-based. As to conditions: for cAMP production in HEK-293 cells: HEK-293 cells stably expressing modified GPR119, test compounds 0.2 nM to 10 μM, one-hour incubation at ambient temperature; for Fold over baseline: increase in cAMP relative to basal levels, agonist activity if 1.5-fold or greater. The essentials:
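Doxycycline-induced (1 μg/mL, overnight) HEK-293 cells expressing modified GPR119 were thawed, 2000 cells/well, and exposed to compounds (0.2 nM-10 μM final, 0.5% DMSO) for 1 h at ambient temperature in HBSS/HEPES/BSA. cAMP was measured by LANCE TR-FRET against a standard curve. Agonism was defined as ≥1.5-fold over basal.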

Consider `Cc1cc(S(C)(=O)=O)ncc1N[C@H]1CCN(C2CCN(c3cnc(Cl)cn3)CC2)C1=O` [Example 123, (S)-1-(1-(5-chloropyrazin-2-yl)piperidin-4-yl)-3-(4-methyl-6-(methylsulfonyl)pyridin-3-ylamino) pyrrolidin-2-one], for which the “cAMP production in HEK-293 cells” value worked out at 15.8 nmol and the Fold over baseline is reported as 3.5.
In the same order, the values of `O=C1[C@@H](Nc2ccc(S(=O)(=O)C3CC3)nc2)CCN1C1CCN(c2cnc(Cl)cn2)CC1` [Example 124, (S)-1-(1-(5-chloropyrazin-2-yl)piperidin-4-yl)-3-(6-(cyclopropylsulfonyl)pyri-din-3-ylamino)pyrrolidin-2-one] are 14.1 nmol and 3.6.
As to `Cc1cc(S(C)(=O)=O)ncc1N[C@H]1CCN(C2CCN(c3ncc(Cl)cc3Cl)CC2)C1=O` [Example 125, (S)-1-(1-(3,5-dichloro-pyridin-2-yl)piperidin-4-yl)-3-(4-methyl-6-(methylsulfonyl)pyridin-3-ylamino)pyrrolidin-2-one], the “cAMP production in HEK-293 cells” value is 9.0 nmol and the Fold over baseline came to 2.0.
On the same counts, the results for `O=C1[C@@H](Nc2ccc(S(=O)(=O)C3CC3)nc2)CCN1C1CCN(c2ncc(Cl)cc2F)CC1` [Example 126, (S)-1-(1-(5-chloro-3-fluoropyridin-2-yl)piperidin-4-yl)-3-(6-(cyclopropylsulfonyl)pyri-din-3-ylamino)pyrrolidin-2-one] are 10.4 nmol and 2.4.
On to `CCS(=O)(=O)c1ccc(N[C@H]2CCN(C3CCN(c4ncc(Cl)cc4F)CC3)C2=O)cn1` [Example 127, (S)-1-(1-(5-chloro-3-fluoropyridin-2-yl)piperidin-4-yl)-3-(6-(ethylsulfonyl)pyridin-3-ylamino)pyrrolidin-2-one], for which the “cAMP production in HEK-293 cells” value is 13.0 nmol and the Fold over baseline is reported as 2.7.
Take `CCS(=O)(=O)c1ccc(N[C@H]2CCN(C3CCN(c4cnc(Cl)cn4)CC3)C2=O)cn1` [Example 128, (S)-1-(1-(5-chloropyrazin-2-yl)piperidin-4-yl)-3-(6-(ethylsulfonyl)pyridin-3-ylamino)pyrrolidin-2-one]: the “cAMP production in HEK-293 cells” value amounted to 16.6 nmol and the Fold over baseline turned out to be 3.4.
On to `CCS(=O)(=O)c1ccc(N[C@H]2CCN(C3CCN(c4ncc(Cl)cc4C#N)CC3)C2=O)cn1` [Example 129, (S)-5-chloro-2-(4-(3-(6-(ethylsulfonyl)pyridin-3-ylamino)-2-oxopyrrolidin-1-yl)piperidin-1-yl)nicotinonitrile], for which the “cAMP production in HEK-293 cells” value was found to be 28.4 nmol and the Fold over baseline is 2.1.
In the same order, the values of `CS(=O)(=O)c1ccc(N[C@H]2CCN(C3CCN(c4ncc(Cl)cc4F)CC3)C2=O)cn1` [Example 130, (S)-1-(1-(5-chloro-3-fluoropyridin-2-yl)piperidin-4-yl)-3-(6-(methylsulfonyl)pyridin-3-ylamino)pyrrolidin-2-one] are 26.8 nmol and 3.5.
Take `CS(=O)(=O)c1ccc(N[C@H]2CCN(C3CCN(c4cnc(Cl)cn4)CC3)C2=O)cn1` [Example 131, (S)-1-(1-(5-chloropyrazin-2-yl)piperidin-4-yl)-3-(6-(methylsulfonyl)pyridin-3-ylamino)pyrrolidin-2-one]: the “cAMP production in HEK-293 cells” value was 24.8 nmol and the Fold over baseline amounted to 3.8.
On the same counts, the results for `CS(=O)(=O)c1ccc(N[C@H]2CCN(C3CCN(c4nccnc4C#N)CC3)C2=O)c(F)c1` [Example 132, (S)-3-(4-(3-(2-fluoro-4-(methylsulfonyl)phenyl-amino)-2-oxopyrrolidin-1-yl)piperidin-1-yl)pyrazine-2-carbonitrile] are 9.1 nmol and 1.5.
In the case of `Cc1nc(S(C)(=O)=O)ccc1N[C@H]1CCN(C2CCN(c3cnc(Cl)cn3)CC2)C1=O` [Example 133, (S)-1-(1-(5-chloro-pyrazin-2-yl)piperidin-4-yl)-3-(2-methyl-6-(methylsulfonyl)pyridin-3-ylamino)pyrrolidin-2-one], the “cAMP production in HEK-293 cells” value came out at 27.9 nmol and the Fold over baseline came out at 2.2.
In the case of `Cc1cnc(N2CCC(N3CC[C@H](Nc4ccc(S(C)(=O)=O)cc4F)C3=O)CC2)c(C#N)n1` [Example 134, (S)-3-(4-(3-(2-fluoro-4-(methylsulfonyl)phenyl-amino)-2-oxopyrrolidin-1-yl)piperidin-1-yl)-6-methylpyrazine-2-carbonitrile], the “cAMP production in HEK-293 cells” value was 35.7 nmol and the Fold over baseline is reported as 2.7.
Consider `CS(=O)(=O)c1ccc(O[C@H]2CCN(C3CCN(c4ncc(C(F)(F)F)cc4Cl)CC3)C2=O)c(F)c1` [Example 136, (S)-1-(1-(3-chloro-5-(trifluoromethyl)pyridin-2-yl)piperidin-4-yl)-3-(2-fluoro-4-(methyl-sulfonyl)phenoxy)pyrrol-idin-2-one], for which the “cAMP production in HEK-293 cells” value was 36.5 nmol and the Fold over baseline turned out to be 3.0.
For the molecule `O=C1[C@@H](Oc2ccc(-n3cnnn3)cc2)CCN1C1CCN(c2ncc(C(F)(F)F)cc2Cl)CC1` [Example 137, (S)-3-(4-(1H-tetrazol-1-yl)phenoxy)-1-(1-(3-chloro-5-(trifluoro-methyl)pyridin-2-yl)piperidin-4-yl) pyrrolidin-2-one], the “cAMP production in HEK-293 cells” value turned out to be 31.7 nmol and the Fold over baseline was found to be 6.5.
Turning to `CS(=O)(=O)c1ccc(O[C@H]2CCN(C3CCN(c4ncc(C(F)(F)F)cc4F)CC3)C2=O)c(F)c1` [Example 138, (S)-3-(2-fluoro-4-(methyl-sulfonyl)phenoxy)-1-(1-(3-fluoro-5-(trifluoro-methyl)pyridin-2-yl)piperidin-4-yl) pyrrolidin-2-one], the “cAMP production in HEK-293 cells” value was determined as 38.6 nmol and the Fold over baseline is recorded as 6.7.
As for `CS(=O)(=O)c1ccc(O[C@H]2CCN(C3CCN(c4ncc(Cl)cc4F)CC3)C2=O)c(F)c1` [Example 139, (S)-1-(1-(5-chloro-3-fluoropyridin-2-yl)piperidin-4-yl)-3-(2-fluoro-4-(methylsulfonyl)phenoxy) pyrrolidin-2-one], the “cAMP production in HEK-293 cells” value was 26.6 nmol and the Fold over baseline was found to be 5.0.
In the case of `COC(=O)c1ccc(O[C@H]2CCN(C3CCN(c4ncc(C(F)(F)F)cc4Cl)CC3)C2=O)c(F)c1` [Example 140, (S)-methyl 4-(1-(1-(3-chloro-5-(trifluoro-methyl)pyridin-2-yl)piperidin-4-yl)-2-oxopyrrolidin-3-yloxy)-3-fluorobenzoate], the “cAMP production in HEK-293 cells” value is 12.2 nmol and the Fold over baseline is 2.7.
`O=C1[C@@H](Oc2ccc(-n3cncn3)cc2)CCN1C1CCN(c2ncc(C(F)(F)F)cc2Cl)CC1` [Example 141, (S)-3-(4-(1H-1,2,4-triazol-1-yl)phenoxy)-1-(1-(3-chloro-5-(trifluoromethyl)pyridin-2-yl)piperidin-4-yl)pyrrolidin-2-one]: the “cAMP production in HEK-293 cells” value came out at 15.5 nmol and the Fold over baseline came out at 3.7.
With `CS(=O)(=O)c1ccc(O[C@H]2CCN(C3CCN(c4ncc(C(F)(F)F)cc4F)CC3)C2=O)cn1` [Example 142, (S)-1-(1-(3-fluoro-5-(trifluoromethyl)pyridin-2-yl)piperidin-4-yl)-3-(6-(methylsulfonyl)pyridin-3-yloxy) pyrrolidin-2-one], the “cAMP production in HEK-293 cells” value came out at 21.7 nmol and the Fold over baseline is given as 8.3.
With `CS(=O)(=O)c1ccc(O[C@H]2CCN(C3CCN(c4ncc(C(F)(F)F)cc4Cl)CC3)C2=O)cn1` [Example 143, (S)-1-(1-(3-chloro-5-(trifluoromethyl)pyridin-2-yl)piperidin-4-yl)-3-(6-(methylsulfonyl)pyridin-3-yloxy) pyrrolidin-2-one], the “cAMP production in HEK-293 cells” value was determined as 13.3 nmol and the Fold over baseline stood at 4.3.
`CS(=O)(=O)c1ccc(O[C@H]2CCN(C3CCN(c4ncc(Cl)cc4F)CC3)C2=O)cn1` [Example 144, (S)-1-(1-(5-chloro-3-fluoropyridin-2-yl)piperidin-4-yl)-3-(6-(methylsulfonyl)pyridin-3-yloxy)pyrrolidin-2-one]: the “cAMP production in HEK-293 cells” value was 19.6 nmol and the Fold over baseline is recorded as 2.9.
In the same order, the values of `CS(=O)(=O)c1ccc(N[C@H]2CCCN(C3CCN(c4ncc(C(F)(F)F)cc4Cl)CC3)C2=O)c(F)c1` [Example 145, (S)-1′-(3-chloro-5-(trifluoromethyl)pyridin-2-yl)-3-(2-fluoro-4-(methylsulfonyl)phenyl-amino)-1,4′-bipiperidin-2-one] are 28.3 nmol and 2.1.
In the case of `CS(=O)(=O)c1ccc(N[C@H]2CCCN(C3CCN(c4ncc(C(F)(F)F)cc4F)CC3)C2=O)c(F)c1` [Example 146, (S)-3-(2-fluoro-4-(methylsulfonyl)phenyl-amino)-1′-(3-fluoro-5-(trifluoromethyl)pyridin-2-yl)-1,4′-bipiperidin-2-one], the “cAMP production in HEK-293 cells” value worked out at 34.6 nmol and the Fold over baseline is given as 2.6.
In the same order, the values of `CS(=O)(=O)c1ccc(N[C@H]2CCN(C3CCN(c4ncc(Cl)nc4Cl)CC3)C2=O)c(F)c1` [Example 147, (S)-1-(1-(3,5-dichloropyrazin-2-yl)piperidin-4-yl)-3-(2-fluoro-4-(methylsulfonyl)phenylamino)pyrrolidin-2-one] are 46.4 nmol and 3.6.
Consider `O=C(c1ccc(O[C@H]2CCN(C3CCN(c4ncc(Cl)cc4F)CC3)C2=O)cn1)N1CCCC1` [Example 148, (S)-1-(1-(5-chloro-3-fluoropyridin-2-yl)piperidin-4-yl)-3-(6-(pyrrolidine-1-carbonyl)pyridin-3-yloxy)pyrrolidin-2-one], for which the “cAMP production in HEK-293 cells” value turned out to be 14.4 nmol and the Fold over baseline is on record as 2.4.
